Experimental findings from patent US9732087B2, “Diamino-pyridine, pyrimidine, and pyridazine modulators of the histamine H4 receptor” (JANSSEN PHARMACEUTICA NV, priority 2008, dated 2017) are described below.

Molecules are shown by their SMILES.

The target in the assay is human H4 receptor (Homo sapiens (Human), UniProt Q9H3N8). The assay is described as follows: Binding assay on recombinant human histamine H4 receptor ([3H]histamine competition, SK-N-MC cell membranes). The note with it: membranes harvested with cell harvester; [3H]histamine 10 nM; average of results; read-out: Cell Harvester Ki. Put shortly: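 Membranes from SK-N-MC cells stably or transiently transfected with human H4 receptor, prepared by homogenization and 30,000 g centrifugation in Tris/EDTA. Bound [3H]histamine separated by rapid filtration on PEI-treated GF/C filters, washed with ice-cold Tris/EDTA, counted by scintillation. '>' values denote highest concentration tested.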
Sequence of human H4 receptor (Q9H3N8 whole entry): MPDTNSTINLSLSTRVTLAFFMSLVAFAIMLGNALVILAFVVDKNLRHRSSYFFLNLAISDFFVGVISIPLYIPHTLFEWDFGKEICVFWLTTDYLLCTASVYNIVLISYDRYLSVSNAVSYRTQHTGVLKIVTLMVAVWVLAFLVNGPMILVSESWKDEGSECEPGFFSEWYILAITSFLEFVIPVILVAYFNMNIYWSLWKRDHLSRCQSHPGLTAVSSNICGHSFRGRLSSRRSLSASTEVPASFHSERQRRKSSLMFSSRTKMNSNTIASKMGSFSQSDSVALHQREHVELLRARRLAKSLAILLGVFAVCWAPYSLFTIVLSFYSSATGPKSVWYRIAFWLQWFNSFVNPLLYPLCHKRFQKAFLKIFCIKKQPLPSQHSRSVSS
`C[C@@H](Nc1cc(N2CCNCC2)cnn1)c1ccccc1` [Example 349, N-[(1R)-1-Phenylethyl]-5-piperazin-1-ylpyridazin-3-amine]: the Ki was more than 10000 nM.

As to `CC(C)(CO)CNc1cc(N2CC[C@@H](N)C2)cnn1` [Example 350, 3-({5-[(3R)-3-Aminopyrrolidin-1-yl]pyridazin-3-yl}amino)-2,2-dimethylpropan-1-ol], the inhibitory constant (Ki) worked out at 1720 nM. For `CNC1CN(c2cnnc(NC3CC3)c2)C1` [Example 351, N-Cyclopropyl-5-[3-(methylamino)azetidin-1-yl]pyridazin-3-amine], the Ki came to 206 nM.

`CNC1CN(c2cnnc(NCc3ccccn3)c2)C1` [Example 352, 5-[3-(Methylamino)azetidin-1-yl]-N-(pyridin-2-ylmethyl)pyridazin-3-amine]: the inhibitory constant (Ki) is more than 10000 nM.

For `CC(C)CNc1cc(N2CC[C@@H](N)C2)cnn1` [Example 353, 5-[(3R)-3-Aminopyrrolidin-1-yl]-N-(2-methylpropyl)pyridazin-3-amine], the Ki came out at 106 nM. In the case of `c1nnc(NC2CCCC2)cc1N1CCNCC1` [Example 354, N-Cyclopentyl-5-piperazin-1-ylpyridazin-3-amine], the inhibition constant (Ki) was 2130 nM. Take `c1nnc(NC2CCCCC2)cc1N1CCNCC1` [Example 355, N-Cyclohexyl-5-piperazin-1-ylpyridazin-3-amine]: the Ki was 2900 nM. For the compound `CCCCNc1cc(N2CCNCC2)cnn1` [Example 356, N-Butyl-5-piperazin-1-ylpyridazin-3-amine], the inhibition constant Ki came out at 1600 nM. For `CC(C)(C)CNc1cc(N2CCNCC2)cnn1` [Example 357, N-(2,2-Dimethylpropyl)-5-piperazin-1-ylpyridazin-3-amine], the Ki is 4370 nM. For the compound `NC1CN(c2cnnc(NCC3CCCC3)c2)C1` [Example 358, 5-(3-Aminoazetidin-1yl)-N-(cyclopentylmethyl)pyridazin-3-amine], the Ki was more than 10000 nM.

For the compound `N[C@@H]1CCN(c2cnnc(NCC3CCCC3)c2)C1` [Example 359, 5-[(3R)-3-Aminopyrrolidin-1-yl]-N-(cyclopentylmethyl)pyridazin-3-amine], the Ki stood at 161 nM. Consider `c1nnc(NCC2CCCC2)cc1N1C[C@H]2CCN[C@H]2C1` [Example 360, N-(Cyclopentylmethyl)-5-[(3aR,6aR)-hexahydropyrrolo[3,4-b]pyrrol-5(1H)-yl]pyridazin-3-amine], for which the Ki amounted to 1170 nM. In the case of `c1nnc(NCC2CC2)cc1N1CCNCC1` [Example 361, N-(Cyclopropylmethyl)-5-piperazin-1-ylpyridazin-3-amine], the inhibition constant (Ki) was found to be 1230 nM. The result for `c1ccc(CCNc2cc(N3CCNCC3)cnn2)cc1` [Example 362, N-(2-Phenylethyl)-5-piperazin-1-ylpyridazin-3-amine] reads 2210 nM; that for `c1nnc(NCC2CCCC2)cc1N1CCNCC1` [Example 363, N-(Cyclopentylmethyl)-5-piperazin-1-ylpyridazin-3-amine], 4730 nM; that for `N[C@@H]1CCN(c2cnnc(NCCc3ccccc3)c2)C1` [Example 364, 5-[(3R)-3-Aminopyrrolidin-1-yl]-N-(2-phenylethyl)pyridazin-3-amine], 1740 nM. For `N[C@@H]1CCN(c2cnnc(NC3CCCCC3)c2)C1` [Example 365, 5-[(3R)-3-Aminopyrrolidin-1-yl]-N-cyclohexylpyridazin-3-amine], the Ki turned out to be 508 nM.

As to `CC(C)(CO)CNc1cc(N2CCNCC2)cnn1` [Example 366, 2,2-Dimethyl-3-[(5-piperazin-1-ylpyridazin-3-yl)amino]propan-1-ol], the Ki is more than 10000 nM.

Consider `CCCCNc1cc(N2CC[C@@H](N)C2)cnn1` [Example 367, 5-[(3R)-3-Aminopyrrolidin-1-yl]-N-butylpyridazin-3-amine], for which the inhibition constant Ki was 867 nM. Regarding `N[C@@H]1CCN(c2cnnc(NC3CCCC3)c2)C1` [Example 368, 5-[(3R)-3-Aminopyrrolidin-1-yl]-N-cyclopentylpyridazin-3-amine], the Ki was 290 nM.

As to `N[C@@H]1CCN(c2cnnc(NCC3CC3)c2)C1` [Example 369, 5-[(3R)-3-Aminopyrrolidin-1-yl]-N-(cyclopropylmethyl)pyridazin-3-amine], the inhibition constant (Ki) came to 619 nM. For the compound `CNC1CN(c2cnnc(NCC3CCCC3)c2)C1` [Example 370, N-(Cyclopentylmethyl)-5-[3-(methylamino)azetidin-1-yl]pyridazin-3-amine], the Ki worked out at 224 nM. For the compound `CC(C)(C)CNc1cc(N2CC[C@@H](N)C2)cnn1` [Example 371, 5-[(3R)-3-Aminopyrrolidin-1-yl]-N-(2,2-dimethylpropyl)pyridazin-3-amine], the Ki came out at 130 nM. `CN[C@@H]1CCN(c2cnnc(NCCc3ccccc3)c2)C1` [Example 372, 5-[(3R)-3-(Methylamino)pyrrolidin-1-yl]-N-(2-phenylethyl)pyridazin-3-amine]: the Ki was 139 nM.

On to `CN[C@H]1CCN(c2cnnc(N[C@H](C)C3CCCCC3)c2)C1` [Example 373, N-[(1R)-1-Cyclohexylethyl]-5-[(3S)-3-(methylamino)pyrrolidin-1-yl]pyridazin-3-amine], for which the Ki amounted to 143 nM. Take `CN[C@H]1CCN(c2cnnc(NCC3CC4CCC3C4)c2)C1` (stereo partly drawn) [Example 374, N-(Bicyclo[2.2.1]hept-2-ylmethyl)-5-[(3S)-3-(methylamino)pyrrolidin-1-yl]pyridazin-3-amine]: the Ki was 298 nM. The result for `CN[C@@H]1CCN(c2cnnc(NCC3CC4CCC3C4)c2)C1` (stereo partly drawn) [Example 375, N-(Bicyclo[2.2.1]hept-2-ylmethyl)-5-[(3R)-3-(methylamino)pyrrolidin-1-yl]pyridazin-3-amine] reads 66.8 nM; that for `CN[C@H]1CCN(c2cnnc(NCCOC)c2)C1` [Example 376, N-(2-Methoxyethyl)-5-[(3S)-3-(methylamino)pyrrolidin-1-yl]pyridazin-3-amine], more than 10000 nM; that for `CN[C@@H]1CCN(c2cnnc(NC3CC3)c2)C1` [Example 377, N-Cyclopropyl-5-[(3R)-3-(methylamino)pyrrolidin-1-yl]pyridazin-3-amine], 699 nM. On to `CN[C@@H]1CCN(c2cnnc(N[C@H](C)C3CCCCC3)c2)C1` [Example 378, N-[(1R)-1-Cyclohexylethyl]-5-[(3R)-3-(methylamino)pyrrolidin-1yl]pyridazin-3-amine], for which the inhibitory constant (Ki) worked out at 6.16 nM. Consider `CN[C@H]1CCN(c2cnnc(NCC(C)C)c2)C1` [Example 379, 5-[(3S)-3-(Methylamino)pyrrolidin-1-yl]-N-(2-methylpropyl)pyridazin-3-amine], for which the Ki came out at 296 nM. As to `CN[C@H]1CCN(c2cnnc(NCC3CCCC3)c2)C1` [Example 382, N-(Cyclopentylmethyl)-5-[(3S)-3-(methylamino)pyrrolidin-1-yl]pyridazin-3-amine], the Ki was found to be 138 nM. On to `CN[C@H]1CCN(c2cnnc(NCC(C)(C)CO)c2)C1` [Example 383, 2,2-Dimethyl-3-({5-[(3S)-3-(methylamino)pyrrolidin-1-yl]pyridazin-3-yl}amino)propan-1-ol], for which the Ki was determined as 596 nM. The figure for `CN[C@@H]1CCN(c2cnnc(NCc3ccc(C)cc3)c2)C1` [Example 384, 5-[(3R)-3-(Methylamino)pyrrolidin-1-yl]-N-(4-methylbenzyl)pyridazin-3-amine] is 2000 nM. Regarding `CN[C@H]1CCN(c2cnnc(NCC(C)(C)C)c2)C1` [Example 385, N-(2,2-Dimethylpropyl)-5-[(3S)-3-(methylamino)pyrrolidin-1-yl]pyridazin-3-amine], the inhibitory constant (Ki) amounted to 259 nM. The figure for `CN[C@@H]1CCN(c2cnnc(NCCCC(F)(F)F)c2)C1` [Example 386, 5-[(3R)-3-(Methylamino)pyrrolidin-1-yl]-N-(4,4,4-trifluorobutyl)pyridazin-3-amine] is 284 nM; for `CN[C@@H]1CCN(c2cnnc(NCc3ccoc3)c2)C1` [Example 387, N-(Furan-3-ylmethyl)-5-[(3R)-3-(methylamino)pyrrolidin-1-yl]pyridazin-3-amine] it is 835 nM; for `CN[C@@H]1CCN(c2cnnc(NCC3CCC4CC3C4(C)C)c2)C1` (stereo partly drawn) [Example 388, N-[(6,6-Dimethylbicyclo[3.1.1]hept-2-yl)methyl]-5-[(3R)-3-(methylamino)pyrrolidin-1-yl]pyridazin-3-amine] it is 293 nM. As for `CN[C@H]1CCN(c2cnnc(NCCCC(F)(F)F)c2)C1` [Example 389, 5-[(3S)-3-(Methylamino)pyrrolidin-1-yl]-N-(4,4,4-trifluorobutyl)pyridazin-3-amine], the Ki was found to be 1750 nM.

For `CN[C@@H]1CCN(c2cnnc(NCCCO)c2)C1` [Example 390, 3-({5-[(3R)-3-(Methylamino)pyrrolidin-1-yl]pyridazin-3-yl}amino)propan-1-ol], the Ki is more than 10000 nM. With `CN[C@@H]1CCN(c2cnnc(NCC3CCCCC3)c2)C1` [Example 391, N-(Cyclohexylmethyl)-5-[(3R)-3-(methylamino)pyrrolidin-1-yl]pyridazin-3-amine], the Ki amounted to 36.5 nM. Regarding `CN[C@@H]1CCN(c2cnnc(NCCOC)c2)C1` [Example 393, N-(2-Methoxyethyl)-5-[(3R)-3-(methylamino)pyrrolidin-1-yl]pyridazin-3-amine], the Ki was found to be 1810 nM.

Regarding `CN[C@H]1CCN(c2cnnc(NCC3CCC4CC3C4(C)C)c2)C1` (stereo partly drawn) [Example 394, N-[(6,6-Dimethylbicyclo[3.1.1]hept-2-yl)methyl]-5-[(3S)-3-(methylamino)pyrrolidin-1-yl]pyridazin-3-amine], the inhibition constant (Ki) worked out at 634 nM. The result for `CN[C@H]1CCN(c2cnnc(NC3CC3)c2)C1` [Example 395, N-Cyclopropyl-5-[(3S)-3-(methylamino)pyrrolidin-1-yl]pyridazin-3-amine] reads 1900 nM; that for `CN[C@H]1CCN(c2cnnc(NCC3CCCCC3)c2)C1` [Example 396, N-(Cyclohexylmethyl)-5-[(3S)-3-(methylamino)pyrrolidin-1-yl]pyridazin-3-amine], 380 nM.
